Read-outs that look alike come from different tables or passages of the source.
Tests used:
[1] = system: αCGRP −/− and αCGRP +/+ mice; assay: Morphine tolerance in the tail-flick assay after repeated injections; assay type: in vivo; conditions: αCGRP −/− vs +/+ mice; repeated ip morphine, day 1-2 50 mg/kg, day 3-4 100 mg/kg
Experimental: Daily injections ip of morphine were performed: day 1 and 2, 50 mg/kg, day 3-4, 100 mg/kg. Analgesia morphine was tested. αCGRP −/− and +/+ mice were analyzed in parallel.

[2] = system: αCGRP −/− and αCGRP +/+ mice; conditions: αCGRP −/− mice vs +/+, 30 min after injection
Experimental: The tail flick assay was performed with a tail flick analgesia meter from Columbus Instruments. The cut-off time of the test was 10 seconds.
Morphine or nicotine analgesia were analyzed by using tail flick and hot plate tests. The tests were performed 30 minutes after the injection of drug on αCGRP −/− and +/+ mice.

[3] = system: αCGRP −/− and αCGRP +/+ mice; assay: Morphine dependence, naloxone-precipitated somatic withdrawal signs
Experimental: Morphine dependence was induced by repeated ip morphine injection for one week: day 1 and 2, 50 mg/kg; day 3 and 4, 100 mg/kg; days 5-7, 100 mg/kg twice/day; day 8, 100 mg/kg in the morning. […] The inventors noted the behavioral withdrawal symptoms (jumping, teeth chattering, tremors, paw tremors, wet dog shakes, ptosis, diarrhea) during 30 minutes after naloxone injection.

[4] = system: αCGRP −/− and αCGRP +/+ mice; conditions: αCGRP −/− mice vs +/+; nicotine 0.5 and 2.0 mg/kg sc; data not shown
[5] = system: αCGRP −/− and αCGRP +/+ mice; assay: Heroin self-administration (lever press operant task); assay type: in vivo
Experimental: Following acquisition of stable heroin self-administration at 15.0 μg/kg/injection dose (3 consecutive sessions <+/−20% variation, >70% active lever responding), mice were allowed to self-administer heroin at each dose during two daily two-hr sessions in a Latin square dose order. After all heroin doses had been tested, saline vehicle was substituted for heroin until responding stabilized for at least 2 consecutive sessions (data points above “saline”).
All procedures involving animals described here were approved by the Service Vétérinaire of the Canton of Vaud, Lausanne, Switzerland. Six individually housed mice of each genotype (CGRP −/− and +/+) were tested during the light phase (12/12; lights on 7:00 am) in daily sessions 5 days/week. Operant chambers housed in sound-attenuating cubicles with a house light and ventilation fan were equipped with cue lights above two retractable levers, a liquid dipper, syringe pump, liquid swivel and counterbalance arm (swivel and counterbalance arms—Instech, Plymouth Meeting, Pa., USA; all other equipment—MedAssociates, Georgia, Vt., USA). A single lever press on the “active” lever raised the dipper into the cage for 10 s and illuminated the cue light above the lever during reinforcer presentation and for a 1-10 s post-reinforcer Time-out (TO) period, depending on the schedule of reinforcement. […]

CN1CC[C@]23c4c5ccc(O)c4O[C@H]2[C@@H](O)C=C[C@H]3[C@H]1C5 [morphine]
progressive decrease in amplitude of antinociceptive response (tolerance), tail-flick [1]: did not differ
analgesic response in tail-flick (% MPE) ([2]; morphine 1 mg/kg ip): attenuated
analgesic response in tail-flick (% MPE) ([2]; morphine 5 mg/kg ip): to a lesser extent

C=CCN1CC[C@]23c4c5ccc(O)c4O[C@H]2C(=O)CC[C@@]3(O)[C@H]1C5 [naloxone]
withdrawal signs in saline-treated control mice ([3]; naloxone 2 mg/kg ip, mutant and wild type, data not shown): did not induce any withdrawal signs
total withdrawal scores ([3]; αCGRP −/− vs +/+ mice made morphine dependent, naloxone 0.1, 0.2 and 2.0 mg/kg ip): significantly lower
frequency of each somatic sign of morphine withdrawal (e.g. jumping) ([3]; αCGRP −/− vs +/+ mice made morphine dependent, precipitated by naloxone): reduced

CN1CCCC1c1cccnc1 (stereo not shown) [nicotine]
analgesic effects in tail-flick (% MPE) ([2]; nicotine 0.5 and 2.0 mg/kg sc): significantly increased
analgesic effects in hot-plate test [4]: significantly increased

CC(=O)Oc1ccc2c3c1O[C@H]1[C@@H](OC(C)=O)C=C[C@H]4[C@@H](C2)N(C)CC[C@@]341 [heroin]
intake (injections per session) at 30 μg/kg/injection vs 7.5 and 15.0 μg/kg/injection doses ([5]; both genotypes, P<0.05): differed significantly
acquisition or maintenance of self-administration ([5]; αCGRP −/− vs +/+ mice, 3.75-30 μg/kg/injection iv, FR2): did not differ
